Patent publication US20040137574A1, “Novel polypeptide” (Pfizer Inc, priority 2000, published 2004)

How the values were obtained:
[1] = biological target: T1, PFI-019 (Homo sapiens, UniProt Q96P68); assay: FLIPR cell-based assay for agonist activation of PFI-019 (calcium fluorescence, Fluo3); conditions: PFI-019-transfected HEK 293 cells expressing mouse Gα15, fluorescence intensity versus time
T1 construct: amplify the PFI-019 coding region from human genomic DNA; N-terminal polyhistidine/Xpress leader of vector pcDNA4/HisMax-TOPO (inferred from the vector name); expressed in transfected cells; host or cells: HEK293 cells expressing the mouse Galpha15 gene, transiently transfected
Method: Fluorescence Imaging Plate Reader (FLIPR®) technology was employed as a means to detect activation of PFI-019 by agonists in a cell-based assay.
(§1) 5×10^6 Human Embryonic Kidney (HEK) 293 cells expressing the mouse Gα15 gene (from here on called '293 cells'), were transiently transfected with 7.5 μg of PFI-019 (contained within the pcDNA4HIS-max-TOPO (Invitrogen) plasmid) vector, or vector alone, using Lipofectamine Plus® reagent (Gibco BRL) as per the manufacturer's protocol. The plasmid pcDNA4HIS-max-TOPO was used as it contains elements that up-regulate the level of gene transcription over standard pcDNA3.1 vectors. 24 hrs post-transfection, the cells were detached from the flask using Trypsin/EDTA solution (LTI) and seeded into a black sided, Poly-D-lysine-treated, 96-well plate (Becton Dickinson) at 5×10^4 cells/well density. The plates were left overnight to allow the cells to adhere to the bottom of the wells. […] The FLIPR® processing involved reading the fluorescence for all samples for 2 minutes; during this time the fluorescence baseline was determined for the first 10 seconds. The desired amount of compound was then automatically transferred to the wells, and the fluorescence was continuously monitored for the remainder of the time. […]

[2] = tested on: Vector-only transfected 293 cells; assay: FLIPR cell-based assay, vector-only (mock) transfected control cells; set-up: species or system human; conditions: vector-only transfected HEK 293 cells expressing mouse Gα15
Method: as §1

SMILES	stimulation of PFI-019 (fluorescence response) [1]	response of vector-only transfected 293 cells (fluorescence) [2]
Nc1nc(Cl)nc2c1ncn2[C@@H]1O[C@H](COP(=O)([O-])OP(=O)([O-])OP(=O)([O-])[O-])[C@@H](O)[C@H]1O.[Na+].[Na+].[Na+].[Na+] [2-chloro-ATP, 2-chloroadenosine triphosphate tetrasodium]	stimulation of PFI-019	no measurable response
O=c1ccn([C@@H]2O[C@H](COP(=O)(O)OP(=O)(O)OP(=O)(O)O)[C@@H](O)[C@H]2O)c(=O)[nH]1 [UTP, Uridine triphosphate]	stimulation of PFI-019	no measurable response
